Experiment in all cases: DTP human tumour cell line panel, 48 h
Assay [1] concerns SW-620.
Assay [2] concerns UACC-62.
Assay [3] concerns EKVX.
The test system of assay [4] is A498.
Assay [5] relates to M19-MEL.
Assay [6] has as its system SK-MEL-28.
Assay [7] deals with RXF 393.
The test system of assay [8] is OVCAR-3.
In assay [9] the test system is COLO 205.
The subject of assay [10] is UACC-257.
In assay [11] the test system is U-251.
The test system of assay [12] is HCT-15.
Assay [13] has as its system SF-268.
For assay [14], the system named is SK-MEL-2.
Assay [15] concerns IGROV-1.
Assay [16] deals with SNB-19.

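Exposure lasted 48 hours, with cells grown in 96-well plates and compounds tested at five concentrations. Abbreviation: GI50, concentration required for 50% inhibition of growth.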 Active and inactive are the calls of the source. Rule as the data show it: active = GI50 up to about 1.1 µM and inactive = higher.

The record followed here is ChEMBL document CHEMBL1201862, “PubChem BioAssay data set” (2004).

`Cn1c(=O)c(NC(=O)C(Cl)(Cl)Cl)nc2ccccc21`: the GI50 was > 100 µM (inactive) in [1]; > 100 µM (inactive) in assay [2]; 54.5 µM (inactive) in assay [3]; > 100 µM (inactive) in [4]; > 100 µM (inactive) in assay [5]; > 100 µM (inactive) in assay [6]. Further, the GI50 in assay [7] is 81.8 µM (inactive); in assay [8], > 100 µM (inactive); in [9], > 100 µM (inactive); in [10], > 100 µM (inactive); in [11], > 100 µM (inactive); in assay [12] it was > 100 µM. In addition, the GI50 in assay [13], in assay [14], in [15] and in assay [16] was > 100 µM (inactive) in each case.
As to `CN(C)CCNC(=O)c1cccc2ccc(-c3cccnc3)nc12`, the GI50 was 3.76 µM (inactive) in [1]; 4.73 µM (inactive) in assay [2]; 4.47 µM (inactive) in assay [3]; 1.9 µM (inactive) in assay [4]; 5.71 µM (inactive) in assay [5]; 11.6 µM (inactive) in assay [6]. In addition, the GI50 in assay [7] was 6.32 µM (inactive); in [8], 6.27 µM (inactive); in [9] it was 3.13 µM (inactive); in [10], 4.15 µM (inactive); in assay [11] it was 4.36 µM (inactive); in assay [12] it was 4.06 µM. For the same compound, the GI50 was 5.65 µM (inactive) in [13], 8.57 µM (inactive) in assay [14], 3.24 µM (inactive) in assay [15] and 4.14 µM (inactive) in assay [16].
On to `NC(=O)NC(=O)C1CCC(=O)N1S(=O)(=O)c1ccc(Cl)cc1` (stereo unspecified), for which the GI50 in [1], in assay [2], in assay [3], in assay [5], in assay [6] and in assay [7] was > 100 µM (inactive) in each case. Also, the GI50 in [8] is > 100 µM (inactive); in [9], > 100 µM (inactive); in assay [10], > 100 µM (inactive); in [11], > 100 µM (inactive); in assay [12], > 100 µM; in assay [13] it was > 100 µM (inactive). Also, the GI50 in assay [14], in [15] and in assay [16] was > 100 µM (inactive) in each case.
Take `O=C1N2Cc3c4ccc5c3CN3C(=O)N6Cc7c(ccc(c7CN1C6(c1ccccc1)C23c1ccccc1)OCCOCCOc1cc(Br)c(Br)cc1OCCOCCO4)OCCOCCOc1cc(Br)c(Br)cc1OCCOCCO5` (stereo unspecified): the GI50 in [1] is 15.1 µM (inactive); in assay [2], > 100 µM (inactive); in assay [3], > 100 µM (inactive); in [5] it was > 100 µM (inactive); in assay [6] it was > 100 µM (inactive); in assay [7], > 100 µM (inactive). The GI50 in assay [8] was > 100 µM (inactive); in [10], > 100 µM (inactive); in assay [11], > 100 µM (inactive); in assay [12] it was 25.4 µM; in assay [13], > 100 µM (inactive); in [14] it was 91 µM (inactive). The GI50 in assay [15] is 44 µM (inactive); in assay [16], > 100 µM (inactive).
`CC(=O)OCC1OC(N2C(=O)/C(=N\NC(N)=S)c3ccc([N+](=O)[O-])cc32)C(OC(C)=O)C1OC(C)=O` (stereo unspecified): the GI50 is 36.9 µM (inactive) in assay [1]; 13.9 µM (inactive) in assay [2]; 36.6 µM (inactive) in assay [3]; 18.4 µM (inactive) in assay [5]; 29.2 µM (inactive) in assay [6]; 20.2 µM (inactive) in [7]. Besides, the GI50 is 26.4 µM (inactive) in assay [8]; 31 µM (inactive) in [9]; 37.4 µM (inactive) in assay [10]; 28.1 µM (inactive) in assay [11]; 76 µM in assay [12]; 30.8 µM (inactive) in assay [13]. The GI50 in assay [14] is 20.7 µM (inactive); in [15] it was 48.8 µM (inactive); in assay [16] it was 62.5 µM (inactive).
Turning to `C=CCN1C(=O)CS/C1=N\NC(=O)c1c(C)nc2sccn12`, the GI50 in [1], in assay [2], in assay [3], in assay [5], in [6] and in assay [7] was > 100 µM (inactive) each time. Moreover, the GI50 in assay [8] is > 100 µM (inactive); in assay [9] it was > 100 µM (inactive); in [10], > 100 µM (inactive); in assay [11], > 100 µM (inactive); in [12] it was > 100 µM; in assay [13], > 100 µM (inactive). Also, the GI50 in assay [14], in assay [15] and in assay [16] was > 100 µM (inactive) throughout.
On to `CCNC(=O)/C=C/CCC#Cc1ccc(-c2ccc(-c3cccs3)s2)s1`, for which the GI50 in assay [1] is > 100 µM (inactive); in [2] it was 2.9 µM (inactive); in [3], > 100 µM (inactive); in assay [5], > 100 µM (inactive); in [7], > 100 µM (inactive); in [8], > 100 µM (inactive). Further, the GI50 was 1.63 µM (inactive) in assay [9]; > 100 µM (inactive) in assay [10]; > 100 µM (inactive) in assay [11]; > 100 µM in [12]; > 100 µM (inactive) in assay [13]; > 100 µM (inactive) in assay [14]. The GI50 in assay [15] and in assay [16] was > 100 µM (inactive) throughout.
Regarding `COc1cc2cc[n+](C)c(Cc3ccccc3)c2cc1OC`, the GI50 in assay [1], in [2], in [3], in assay [4], in [5] and in assay [6] was > 100 µM (inactive) each time. Further, the GI50 was > 100 µM (inactive) in assay [7]; > 100 µM (inactive) in [8]; > 100 µM (inactive) in assay [9]; > 100 µM (inactive) in [10]; > 100 µM (inactive) in assay [11]; > 100 µM in assay [12]. The GI50 in [13], in [14], in assay [15] and in assay [16] was > 100 µM (inactive) throughout.
In the case of `CC1=C(C(=O)Nc2cc(F)c(F)cc2F)C(c2ccc(N(C)C)cc2)C(C(=O)Nc2cc(F)c(F)cc2F)=C(C)N1`, the GI50 in assay [1] is 28.8 µM (inactive); in assay [3] it was 16 µM (inactive); in assay [4], 19.1 µM (inactive); in [5], 38 µM (inactive); in assay [6], 30.5 µM (inactive); in [7] it was 17.1 µM (inactive). In addition, the GI50 in assay [8] is 0.432 µM (active); in assay [9], 43.2 µM (inactive); in assay [10] it was 25.5 µM (inactive); in [11], 28.9 µM (inactive); in assay [13] it was 27 µM (inactive); in assay [14], 28.8 µM (inactive). Moreover, the GI50 in assay [15] is 35.5 µM (inactive); in [16], 38.7 µM (inactive).
Consider `COc1ccc(C2NCCc3c2[nH]c2ccccc32)cc1` (stereo unspecified), for which the GI50 was > 100 µM (inactive) in assay [1]; > 100 µM (inactive) in assay [2]; > 100 µM (inactive) in [3]; > 100 µM (inactive) in [5]; 5.22 µM (inactive) in assay [6]; 67.1 µM (inactive) in [7]. Also, the GI50 is > 100 µM (inactive) in [8]; 32.2 µM (inactive) in assay [9]; 45.6 µM (inactive) in assay [10]; > 100 µM (inactive) in assay [11]; > 100 µM in [12]; > 100 µM (inactive) in assay [13]. Besides, the GI50 in assay [15] and in assay [16] was > 100 µM (inactive) throughout.
For `CC(=O)O[C@]12CCCCCCC1C1(O)C(O)CCC[C@H]12` (stereo partly specified), the GI50 in [1], in assay [2], in assay [3], in assay [5], in assay [6] and in assay [7] was > 100 µM (inactive) each time. Moreover, the GI50 in assay [9] is > 100 µM (inactive); in assay [10], > 100 µM (inactive); in assay [11] it was > 100 µM (inactive); in [12] it was > 100 µM; in assay [13] it was > 100 µM (inactive); in assay [14], > 100 µM (inactive). Also, in assay [16], the GI50 is > 100 µM (inactive).
As for `CSc1nc2c(nc(N)n2C2OC(CO)C(O)C(O)C2O)c(=O)n1C` (stereo unspecified), the GI50 in assay [1], in assay [2], in assay [3], in assay [4], in assay [5] and in assay [6] was > 100 µM (inactive) in each case. The GI50 in [7], in assay [8], in assay [9], in [10], in assay [11] and in [13] was > 100 µM (inactive) in each case. For the same compound, the GI50 in assay [15] and in [16] was > 100 µM (inactive) each time.
Take `CC(C)C1COC(C(C)(C)C2=N[C@@H](C(C)C)CO2)=N1` (stereo partly specified): the GI50 in [1], in assay [2], in assay [3], in assay [5], in assay [6] and in [7] was > 100 µM (inactive) throughout. Moreover, the GI50 is > 100 µM (inactive) in assay [8]; > 100 µM (inactive) in [9]; > 100 µM (inactive) in [10]; > 100 µM (inactive) in assay [11]; > 100 µM in assay [12]; > 100 µM (inactive) in assay [13]. The GI50 in [14], in assay [15] and in assay [16] was > 100 µM (inactive) in each case.

One may read the GI50 as the concentration at which growth is held to half of that of the control.
